Measured values from US20200237800A1, “METHODS AND COMPOSITIONS FOR THE TREATMENT OF INFLAMMATORY DISEASE” (THE BRIGHAM AND WOMEN'S HOSPITAL, INC., priority 2017, published 2020).
Strand notation (5' to 3'): a small letter for the sugar, then the base; units joined by * are phosphorothioate-linked, units joined directly phosphodiester-linked; [ ] holds rarer units or linkages, { } end groups; capitals alone tell only the bases. d = 2'-deoxy (DNA); m = 2'-O-methyl; r = 2'-OH (RNA)

Legend:
[1] = system: human PBMC-derived macrophages; test: Cytokine/chemokine mRNA (RT-PCR) and protein (ELISA) in LPS-activated human PBMC-derived macrophages after lnc-FAM164A1 silencing; type: cell-based; settings: for TNF-α mRNA: FIG. 11E
Experimental: (§1) Silencing of lnc-FAM164A1 by antisense and si-RNA oligonucleotides on human PBMC-derived macrophages. Lnc-FAM164A1 RNA silencing was performed on human PBMC-derived macrophagesas using SilenceMag (BOCA Scientific, Boca Raton, Fla.) at final concentration of 50-100 nM.32 36-48 hours after transfection, macrophages were stimulated by 10 ng/mL LPS for 2-6 hours before collection of macrophages and cell culture medium. Anti-sense LNATM long RNA GepmeR oligonucleotides target lnc-FAM164A1 (Sequence 5′-GGTAAGAAATAGGTTG-3′(SEQ ID NO: 52)) and nonspecific negative control oligonucleotides (Sequence 5′-AACACGTCTATACGC-3′(SEQ ID NO: 53)) were designed by Exiqon A/S (Vedbaek, Denmark). Si-RNA Oligonucleotides targeting lnc-FAM164A1 and luciferase control siRNA oligos were designed by Axolabs (Kulmback, Germany). Their sequences and chemical modifications are as follows (A, G, U, C: RNA nucleotide; a, g, u, c: 2′-O-methyl-nucleotide, s: Phosphorothioate, dT: desoxy-T residue): Luciferase control siRNA (XD-00194): Sense strand: 5′-cuuAcGcuGAGuAcuucGAdTsdT-3′ (SEQ ID NO: 54); Antisense strand: 5′-UCGAAGuACUcAGCGuAAGdTsdT-3′ (SEQ ID NO: 4). Lnc-FAM164A1 specific siRNA oligo#5 (XD-05325): 5′-ucAccAuuAucuucAuAcudTsdT-3′(SEQ ID NO: 5) Antisense strand: 5′-AGuAUGAAGAuAAUGGUGAdTsdT-3′ (SEQ ID NO: 6). Lnc-FAM164A1 specific siRNA oligo#8 (XD-05328): 5′-uguGcuAAAAuAcuGAGAudTsdT-3′ (SEQ ID NO: 7); Antisense strand: 5′-AUCUcAGuAUUUuAGcAcAdTsdT-3′ (SEQ ID NO: 8).
(§2) RNA extraction and RT-PCR. Total RNA were extracted using an Illustra RNAspin Mini kit (GE Healthcare, Piscataway, N.J.) and the genomic DNA was removed by on-column DNase I digestion at RT for 15 minutes. cDNAs were synthesized using a high capacity cDNA reverse transcription kit (Applied Biosystems, Carlsbad, Calif.). Real-time PCR was performed on a 7900HT fast real-time PCR system (Applied Biosystems). Taqman probe and primers for lnc-FAM164A1 were designed by Integrated DNA Technologies and listed as follows: Probe: 5′-/56-FAM/ATGG CCTCA/ZEN/GTTAGGACTGCTTGG/3IABkFQ/-3′ (SEQ ID NO: 9); Primer1: 5′-GATGGGTGC TGGGAGTATAAG-3′ (SEQ ID NO: 10); Primer2: 5′-[…]-3′ (SEQ ID NO: 11). Other Taqman probes for IL-1β, IL-6, IL-10, CCL2, TNF-α, and GAPDH was purchased from Life Technologies. Relative expression of each gene was normalized by GAPDH.
ELISA. Duoset ELISA kits (R&D systems, Minneapolis, Minn.) were used to detect the levels of cytokines (human and mouse CCL2, IL-6, TNF-α) in culture medium from macrophages or mouse plasma.

[2] = system: lnc-FAM164A1; test: Silencing of lnc-FAM164A1 by antisense and si-RNA oligonucleotides on human PBMC-derived macrophages (RT-PCR); type: cell-based; settings: for potency of silencing of lnc-FAM164A1: compared among 10 different siRNA oligonucleotides in human macrophages
Experimental: as §1
RNA extraction and RT-PCR. Total RNA were extracted using an Illustra RNAspin Mini kit (GE Healthcare, Piscataway, N.J.) and the genomic DNA was removed by on-column DNase I digestion at RT for 15 minutes. cDNAs were synthesized using a high capacity cDNA reverse transcription kit (Applied Biosystems, Carlsbad, Calif.). Real-time PCR was performed on a 7900HT fast real-time PCR system (Applied Biosystems). […]

[3] = system: NF-κB signaling; test: NF-κB inhibitor pretreatment of LPS-stimulated PBMC-derived macrophages (RT-PCR); type: cell-based, human; settings: 3-30 μM, dose-dependent; 30 minutes pretreatment, 10 ng/mL LPS 6 hours
Experimental: FIGS. 10A and 18B. (FIG. 10A) Time course of lnc-FAM164A1 and cytokines expression in LPS-stimulated PBMC-derived macrophages. Human PBMC-derived macrophages were stimulated with 10 ng/mL LPS for 6, 12 and 24 hours. Lnc-FAM164A1 RNA, IL-1β, IL-6 and TNF-α mRNA expression were determined by RT-PCR and normalized by GAPDH expression. (Representative results of 2 different donors). […] Human PBMC-derived macrophages were pretreated with 3-30 μM […] for 30 minutes before the stimulation with 10 ng/mL LPS for 6 hours. Lnc-FAM164A1 RNA, IL-1β, IL-6 and TNF-α mRNA expression were determined by RT-PCR and normalized by GAPDH expression (Representative data from 2 different donors).
as §2, with “Other Taqman probes for IL-1β, IL-6, IL-10, CCL2, TNF-α, and GAPDH was purchased from Life Technologies. Relative expression of each gene was normalized by GAPDH.” left out

[4] = system: human PBMC-derived macrophages; test: Induction of lnc-FAM164A1 expression in human PBMC-derived macrophages (RT-PCR); type: cell-based; settings: 10 ng/mL cytokine, 3 hours
Experimental: FIGS. 1A-1E show LPS treatment increases the expression of lnc-FAM164A1 in human macrophages, PBMCs and white blood cells in humanized Hu-CD34 NSG mice. […] Human PBMC-derived macrophages were stimulated with 10 ng/mL LPS for 3h or 6h (FIG. 1B, P<0.05 LPS vs control; n=5-6 different donors). Human PBMC was isolated from citrated whole blood derived stimulated with 10 ng/mL LPS for 6 hours ex vivo (FIG. 1C, P<0.05 LPS vs control; n=3-4 different donors). Hu-CD34 NSG mice were stimulated with 5 mg/kg of LPS for 6 hours (FIG. 1D, P<0.05, NSG control vs NSG +LPS, n=4 mice per group). Relative fold change of the lnc-FAM164A1 expression was determined by RT-PCR (FIGS. 1B-1D). […]
FIG. 9A-9C show human PBMC-derived macrophages were stimulated with 10 ng/mL human IL-6 and TNF-α for 3 hours. Relative fold change of the lnc-FAM164A1 expression was determined by RT-PCR (P<0.05 LPS vs control; n=3-4 different donors) (FIG. 9A). […] Expression of lnc-FAM164A1 RNA in liver, spleen and lung isolated from the endotoxemic mice was determined by RT-PCR (P<0.05, Spleen vs Lung; n=4 mice per group) (FIG. 9B). […] Lnc-FAM164A1 RNA, IL-1β and GAPDH mRNA expression were determined by RT-PCR and shown as the ratio of nuclear/cytoplasmic in unstimulated macrophages (Left Panel) and LPS-treated macrophages (Right Panel) (n=2 different donors). […]

[5] = LPS-stimulated human macrophages

Compound | LPS-induced CCL2 mRNA expression and protein release [1, 5] | LPS-induced IL-6 mRNA expression and protein release [1, 5] | TNF-α mRNA [1, 5] | potency of silencing of lnc-FAM164A1 [2] | lnc-FAM164A1 expression [4] | further results
5′-GGTAAGAAATAGGTTG-3′ (LNA gapmer, pattern and linkages not given here) [anti-sense oligonucleotides] | significant suppressed | significant suppressed |  |  |  | LPS-induced TNF-α mRNA expression and protein release [1, 5]: significant suppressed; expression of anti-inflammatory cytokine IL-10 ([1]; control and LPS-treated macrophages): no changes; silencing efficacy of lnc-FAM164A1 ([2]; human macrophages, FIG. 11A): at least 50%
Cc1ccc(S(=O)(=O)/C=C/C#N)cc1 [Bay 11-7802] |  |  |  |  |  | transcription of cytokines (IL-1β, IL-6 and TNF-α mRNA) [3]: blocks the transcription; transcription of lnc-FAM164A1 [3]: blocks the transcription
5′-ucAccAuuAucuucAuAcudTsdT-3′ (sense mUmCrAmCmCrAmUmUrAmUmCmUmUmCrAmUrAmCmUdT*dT; antisense rArGmUrArUrGrArArGrAmUrArArUrGrGrUrGrAdT*dT; siRNA) [#5] | decreased expression | decreased expression | No significant change | higher potency of silencing than the others |  | 
5′-uguGcuAAAAuAcuGAGAudTsdT-3′ (sense mUmGmUrGmCmUrArArArAmUrAmCmUrGrArGrAmUdT*dT; antisense rArUrCrUmCrArGmUrArUrUrUmUrArGmCrAmCrAdT*dT; siRNA) [#8] | decreased expression | decreased expression | No significant change | higher potency of silencing than the others |  | 
TNF-α |  |  |  |  | increased the expression | 
IL-6: human IL-6, pro-inflammatory cytokine used as stimulus at 10 ng/mL |  |  |  |  | increased the expression | 
